Test results as given in ChEMBL document CHEMBL4152222, “Structural insights into serotonin receptor ligands polypharmacology” (Eur J Med Chem, 2018).

Legend:
[1] = species: Homo sapiens; test: Selectivity index, ratio of Ki for human 5-HT1A receptor to Ki for human 5-HT7B receptor
[2] = species: Homo sapiens; test: Selectivity index, ratio of Ki for human 5-HT1A receptor to Ki for human 5-HT6 receptor
[3] = target: 5-hydroxytryptamine receptor 6 (Homo sapiens, UniProt P50406); test: Displacement of [3H]-LSD from human 5-HT6 receptor expressed in HEK293 cell membranes after 1 hr by microbeta TopCount analysis
[4] = target: 5-hydroxytryptamine receptor 7 (Homo sapiens, UniProt P34969); test: Displacement of [3H]-5-CT from human 5-HT7b receptor expressed in HEK293 cell membranes after 1 hr by microbeta TopCount analysis
[5] = target: T1, 5-hydroxytryptamine receptor 1A (Homo sapiens, UniProt P08908); test: Displacement of [3H]-8-OH-DPAT from human 5-HT1A receptor expressed in HEK293 cell membranes after 1 hr by microbeta TopCount analysis
T1 sequence (P08908 whole entry): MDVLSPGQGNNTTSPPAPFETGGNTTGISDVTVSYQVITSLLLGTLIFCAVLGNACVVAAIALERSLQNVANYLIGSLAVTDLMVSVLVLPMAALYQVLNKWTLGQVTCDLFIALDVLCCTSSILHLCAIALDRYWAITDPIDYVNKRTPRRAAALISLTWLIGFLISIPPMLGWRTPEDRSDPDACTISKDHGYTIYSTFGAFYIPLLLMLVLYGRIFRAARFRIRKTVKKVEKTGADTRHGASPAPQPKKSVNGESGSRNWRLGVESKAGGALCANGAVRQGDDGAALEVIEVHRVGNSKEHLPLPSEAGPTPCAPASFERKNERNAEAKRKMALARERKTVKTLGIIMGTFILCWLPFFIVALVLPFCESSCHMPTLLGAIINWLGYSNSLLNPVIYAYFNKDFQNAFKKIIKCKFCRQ

[6] = species: Homo sapiens; test: Selectivity index, ratio of Ki for human 5-HT7B receptor to Ki for human 5-HT6 receptor

Chain of 5-hydroxytryptamine receptor 7 (P34969 whole entry): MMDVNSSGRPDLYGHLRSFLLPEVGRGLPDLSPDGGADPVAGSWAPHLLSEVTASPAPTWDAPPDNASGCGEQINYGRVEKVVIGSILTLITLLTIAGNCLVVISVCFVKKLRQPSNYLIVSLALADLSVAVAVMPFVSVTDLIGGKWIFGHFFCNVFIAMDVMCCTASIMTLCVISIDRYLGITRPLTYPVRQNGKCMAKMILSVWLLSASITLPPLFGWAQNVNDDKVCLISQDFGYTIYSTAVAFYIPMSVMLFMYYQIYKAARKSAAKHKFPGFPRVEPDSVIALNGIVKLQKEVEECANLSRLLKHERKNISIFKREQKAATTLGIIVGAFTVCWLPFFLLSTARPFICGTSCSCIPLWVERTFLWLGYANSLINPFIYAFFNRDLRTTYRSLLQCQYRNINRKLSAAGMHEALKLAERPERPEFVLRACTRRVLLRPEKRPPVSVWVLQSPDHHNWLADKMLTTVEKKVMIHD
Chain of 5-hydroxytryptamine receptor 6 (P50406 whole entry): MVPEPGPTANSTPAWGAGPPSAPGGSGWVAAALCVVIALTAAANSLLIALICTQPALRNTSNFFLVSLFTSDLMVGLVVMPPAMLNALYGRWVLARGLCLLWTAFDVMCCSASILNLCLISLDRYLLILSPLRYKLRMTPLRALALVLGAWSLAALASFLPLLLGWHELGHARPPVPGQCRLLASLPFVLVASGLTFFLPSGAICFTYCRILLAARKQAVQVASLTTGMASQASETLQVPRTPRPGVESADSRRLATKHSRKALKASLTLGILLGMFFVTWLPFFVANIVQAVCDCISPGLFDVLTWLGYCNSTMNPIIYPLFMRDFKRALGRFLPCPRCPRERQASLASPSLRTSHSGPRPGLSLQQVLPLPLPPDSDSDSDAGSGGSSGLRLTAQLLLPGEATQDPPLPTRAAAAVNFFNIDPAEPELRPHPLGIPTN

Cc1ccc(C(CCNC(C)c2ccc(Cl)cc2)c2ccco2)cc1 (configuration not stated)
Ratio Ki [1]: 1 | Ratio Ki [2]: 4 | Ki [3]: 2.5 µM | Ki [4]: 8.4 µM | Ki [5]: 9.1 µM | Ratio Ki [6]: 3

Cc1ccc(C(C)NCCC(c2ccc(F)cc2)c2ccco2)cc1 (configuration not stated)
Ratio Ki [1]: 0.5 | Ratio Ki [2]: 3 | Ki [3]: 1.8 µM | Ki [4]: 12.5 µM | Ki [5]: 6.1 µM | Ratio Ki [6]: 7

CCC1(C)CC(CCNCc2ccc(OC)c(OC)c2)(c2ccc(C)cc2)CCO1 (configuration not stated)
Ratio Ki [1]: 1 | Ratio Ki [2]: 11 | Ki [3]: 3.4 µM | Ki [4]: 37.2 µM | Ki [5]: 36.8 µM | Ratio Ki [6]: 11

O[C@H](CCN1CCc2onc(-c3ccc(F)c(F)c3)c2C1)c1ccccc1
Ratio Ki [1]: 5 | Ratio Ki [2]: 37 | Ki [3]: 9 µM | Ki [4]: 71.2 µM | Ki [5]: 330 µM | Ratio Ki [6]: 8

CCC1(C)CC(CCNCc2ccccc2)(c2ccc(C)cc2)CCO1 (configuration not stated)
Ratio Ki [1]: 4 | Ratio Ki [2]: 8 | Ki [3]: 5.6 µM | Ki [4]: 10.1 µM | Ki [5]: 41.8 µM | Ratio Ki [6]: 2

Cc1ccc(COc2ccc(Br)cc2CNC(C)c2ccccc2)cc1 (configuration not stated)
Ratio Ki [1]: 54 | Ratio Ki [2]: 38 | Ki [3]: 5.1 µM | Ki [4]: 3.7 µM | Ki [5]: 196 µM | Ratio Ki [6]: 0.7

COc1ccc(CNCCC(c2ccco2)c2ccccc2OC)cc1 (configuration not stated)
Ratio Ki [1]: 0.6 | Ratio Ki [2]: 2 | Ki [3]: 2.4 µM | Ki [4]: 10.4 µM | Ki [5]: 6.1 µM | Ratio Ki [6]: 4

COc1ccc(CNCCC(c2ccccc2)c2ccc3c(c2)OCO3)cc1 (configuration not stated)
Ratio Ki [1]: 1 | Ratio Ki [2]: 4 | Ki [3]: 3.7 µM | Ki [4]: 14.1 µM | Ki [5]: 15.6 µM | Ratio Ki [6]: 4

CC(NCCC(Cc1ccccc1)c1ccco1)c1ccc(Cl)cc1 (configuration not stated)
Ratio Ki [1]: 2 | Ratio Ki [2]: 5 | Ki [3]: 1.4 µM | Ki [4]: 3.8 µM | Ki [5]: 7.1 µM | Ratio Ki [6]: 3

COc1cc(CNCCC2=CCCCC2)ccc1OCc1ccccc1
Ratio Ki [1]: 0.6 | Ratio Ki [2]: 2 | Ki [3]: 2.7 µM | Ki [4]: 8 µM | Ki [5]: 4.9 µM | Ratio Ki [6]: 3

Cc1ccc(C(C)(C)CC(C)NCc2ccc(C(F)(F)F)cc2)o1 (configuration not stated)
Ratio Ki [1]: 5 | Ratio Ki [2]: 5 | Ki [3]: 5.8 µM | Ki [4]: 6.1 µM | Ki [5]: 31.4 µM | Ratio Ki [6]: 1

O=C1N(Cc2ccccc2)C(c2ccccc2)=NC1(Nc1ccccn1)C(F)(F)F (configuration not stated)
Ratio Ki [1]: 3 | Ratio Ki [2]: 149 | Ki [3]: 1.9 µM | Ki [4]: 84.5 µM | Ki [5]: 284 µM | Ratio Ki [6]: 44
